Results taken from publication PMC9673804, “Design, synthesis and antitumor evaluation of novel pyrazolo[3,4-d]pyrimidines incorporating different amino acid conjugates as potential DHFR inhibitors” (Journal of Enzyme Inhibition and Medicinal Chemistry, 2022).
Several values for one entry are separate records, joined by “and”; a condition that tells them apart may be missing. Equal entries are not always repeated.

Experiments:
[1] = tested on: cervical carcinoma (HeLa); experiment: SRB cytotoxicity assay, HeLa; type: cell-based; settings: Homo sapiens, HeLa cells
human DHFR enzyme = target: T1, human DHFR enzyme (Homo sapiens, UniProt P00374); experiment: Elisa assay of human DHFR enzyme; type: biochemical
T1 construct: purchased MyBioSource MBS9312476
T1 sequence (P00374 1-187): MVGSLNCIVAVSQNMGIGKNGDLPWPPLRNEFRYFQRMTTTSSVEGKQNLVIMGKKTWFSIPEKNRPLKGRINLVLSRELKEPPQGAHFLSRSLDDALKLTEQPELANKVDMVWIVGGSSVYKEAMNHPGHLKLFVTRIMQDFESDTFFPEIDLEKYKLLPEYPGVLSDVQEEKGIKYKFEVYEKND
Method: Enzyme-linked immunosorbent assay (ELISA) assay technique was used to evaluate the anti-DHFR effects of all the synthesised compounds on as described previously. The DHFR ELISA kit (MyBioSource, MBS9312476 San Diego, CA, USA) was used according to the manufacturer instructions. […] The test was repeated in triplicate, and the significance was assessed by one-way ANOVA test followed by Tukey’s posttest, where p < 0.05 was considered significance.

[2] = tested on: MCF-7 breast cancer cell line; experiment: Annexin-V-FITC/PI cell apoptosis assay; type: cell-based, human; settings: MCF-7, Annexin V-FITC/PI, 24 h
Method: Cell cycle analysis was done for the compound 7f against MCF-7 breast cancer cell line[11]^,[14]. Clearly, compound 7f enhanced the accumulation proportion of cells at the pre-G1 phase from 2.19 to 41.36%, and the accumulation percentages in S phase from 31.87 to 46.36%.
Flow cytometric analysis using Annexin-V-fluoresce in isothiocyanate (FITC) and propidium iodide (PI) staining kit (BD Pharmingen, San Diego, USA) was performed to assess the apoptosis. At 70% confluence, the cells were treated with compound 7f at different concentrations of (0–8 μmol/l) for 24 h. Then after trypsinization of cells, washing with PBS and centrifugation, the cells were mixed with FITC and PI in binding buffer. Becton Dickinson (Franklin Lakes, NJ, USA) was used to do the flow cytometry analysis[16]^,[17].

Bax = experiment: Western blot of Bax expression in MCF-7; type: cell-based, human
Method: (§1) The effect of compound 7f on the expression of DHFR, Casp3, Bax, and Bcl-2 proteins in MCF-7 cancer cells was evaluated by western blotting as previously performed. The cancer cells treated or untreated were collected were harvested and blotted on SDS-polyacrylamide gel and separated by Cleaver electrophoresis unit (Cleaver, UK), transferred onto polyvinylidene fluoride (PVDF) membranes (Millipore, USA) for 30 min using a Semi-dry Electroblotter (Biorad, USA) at 2.5 A and 25 V for 30 min. […] After washing, the chemiluminescent Western ECL substrate (Perkin Elmer, Waltham, MA, USA) was applied to the blot and then incubated for 1 min with a mixture of equal volumes from ECL solution A and ECL solution B. The chemiluminescent signals were captured using a CCD camera-based imager (Chemi Doc imager, Biorad, USA), and the bands intensities were then measured by Image J software program. […] For colorimetric assays two-way ANOVA test followed by Bonferroni posttest were used, while for quantification expression on western blot, student-t-test was used (significance p < 0.05). […]
(§2) Sodium dodecyl sulfate polyacrylamide gel electrophoresis (SDS-PAGE) is used to separate proteins based on their size. […] The secondary antibody is typically linked to an enzyme that produces luminescence upon the reaction with its substrate. […]

Bcl-2 [3] = experiment: Western blot of Bcl-2 expression in MCF-7; type: cell-based, human
Method: as §1, §2

Bcl-2 [4] = experiment: Bcl-2 ELISA in MCF-7; type: cell-based, human; settings: dose-dependent
Method: The apoptotic effect of compound 7f on breast cancer cell line MCF-7 were evaluated by quantification of Bax, caspase 3/7, and Bcl-2 using Bax ELISA Kit ab199080 (ABCAM, Cambridge, UK), Caspase-Glo 3/7 assay kits (Promega, Fitchburg, MA, USA), and Bcl-2 ELISA Kit ab119506 (ABCAM, Cambridge, UK), according the instructions of manufacturers[11]^,[14]. The cells were treated with compounds 7f (½ IC50, IC50, or 2 ×IC50), and the activities were shown as a percentage change from the untreated control. The experiments were performed in triplicate applying two-way ANOVA test followed by Bonferroni posttest to evaluate the significance (p < 0.05).

## N=C(N)NCCCC(NC(=O)c1ccc(Nc2ncnc3c2cnn3-c2ccccc2)cc1)C(=O)O (centres unmarked) [Compound 7f, 5-Guanidino-2-{4-[(1-phenyl-1H-pyrazolo[3,4-d]pyrimidin-4-yl)amino]benzamido}pentanoic acid]
[1]
  IC50: 6990 ± 1110 nM
Human DHFR enzyme; DHFR ELISA kit, triplicate
  IC50: < 1000 nM and 310 nM
Human DHFR enzyme; conc 0.1 uM
  inhibition at 0.1 µM: 44%
Human DHFR enzyme; conc 1 uM
  inhibition at 1 µM: 66%
Human DHFR enzyme; conc 10 uM
  inhibition at 10 µM: 86%
Human DHFR enzyme; conc 100 uM
  inhibition at 100 µM: 94%
[2]; control 0.13
  Apoptosis Late: 21.31%
[2]; control 0.66
  Apoptosis Early: 14.12%
[2]; control 1.4
  Necrosis: 5.93%
Bax; MCF7 cells, Cont.MCF7 0.152
  western blotting OD Bax: 0.346 OD
Bax; MCF-7
  expression of Bax (western blot): significantly increased the expression
Bcl-2 [3]; MCF7 cells, Cont.MCF7 0.762
  western blotting OD Bcl2: 0.501 OD
Bcl-2 [3]; MCF-7, compound at IC50
  expression of Bcl-2 (western blot): significantly down-regulated the expression of Bcl-2
Bcl-2 [4]
  Bcl-2 production (ELISA): significantly reduced the Bcl-2 production
